Experimental data published in PMC10847213 (Clinical Pharmacokinetics, 2023).
Entries after “also recorded” stand apart in the source; their conditions may differ. Read-outs that look alike come from different tables or passages of the source.

What was measured:
UGT = test: Effect of multiple-dose lorlatinib on the pharmacokinetics of acetaminophen; format: in vivo, human
[1] = tested on: human pregnane X receptor (PXR); conditions: cited from earlier work
P-glycoprotein (P-gp) [2] = molecular target: P-glycoprotein (P-gp) (Homo sapiens, UniProt P08183); test: Effect of multiple-dose lorlatinib on the pharmacokinetics of fexofenadine; format: in vivo; conditions: lorlatinib 100 mg QD at steady state; probe fexofenadine
Sequence of P-glycoprotein (P-gp) (Homo sapiens, UniProt P08183) (P08183 whole entry): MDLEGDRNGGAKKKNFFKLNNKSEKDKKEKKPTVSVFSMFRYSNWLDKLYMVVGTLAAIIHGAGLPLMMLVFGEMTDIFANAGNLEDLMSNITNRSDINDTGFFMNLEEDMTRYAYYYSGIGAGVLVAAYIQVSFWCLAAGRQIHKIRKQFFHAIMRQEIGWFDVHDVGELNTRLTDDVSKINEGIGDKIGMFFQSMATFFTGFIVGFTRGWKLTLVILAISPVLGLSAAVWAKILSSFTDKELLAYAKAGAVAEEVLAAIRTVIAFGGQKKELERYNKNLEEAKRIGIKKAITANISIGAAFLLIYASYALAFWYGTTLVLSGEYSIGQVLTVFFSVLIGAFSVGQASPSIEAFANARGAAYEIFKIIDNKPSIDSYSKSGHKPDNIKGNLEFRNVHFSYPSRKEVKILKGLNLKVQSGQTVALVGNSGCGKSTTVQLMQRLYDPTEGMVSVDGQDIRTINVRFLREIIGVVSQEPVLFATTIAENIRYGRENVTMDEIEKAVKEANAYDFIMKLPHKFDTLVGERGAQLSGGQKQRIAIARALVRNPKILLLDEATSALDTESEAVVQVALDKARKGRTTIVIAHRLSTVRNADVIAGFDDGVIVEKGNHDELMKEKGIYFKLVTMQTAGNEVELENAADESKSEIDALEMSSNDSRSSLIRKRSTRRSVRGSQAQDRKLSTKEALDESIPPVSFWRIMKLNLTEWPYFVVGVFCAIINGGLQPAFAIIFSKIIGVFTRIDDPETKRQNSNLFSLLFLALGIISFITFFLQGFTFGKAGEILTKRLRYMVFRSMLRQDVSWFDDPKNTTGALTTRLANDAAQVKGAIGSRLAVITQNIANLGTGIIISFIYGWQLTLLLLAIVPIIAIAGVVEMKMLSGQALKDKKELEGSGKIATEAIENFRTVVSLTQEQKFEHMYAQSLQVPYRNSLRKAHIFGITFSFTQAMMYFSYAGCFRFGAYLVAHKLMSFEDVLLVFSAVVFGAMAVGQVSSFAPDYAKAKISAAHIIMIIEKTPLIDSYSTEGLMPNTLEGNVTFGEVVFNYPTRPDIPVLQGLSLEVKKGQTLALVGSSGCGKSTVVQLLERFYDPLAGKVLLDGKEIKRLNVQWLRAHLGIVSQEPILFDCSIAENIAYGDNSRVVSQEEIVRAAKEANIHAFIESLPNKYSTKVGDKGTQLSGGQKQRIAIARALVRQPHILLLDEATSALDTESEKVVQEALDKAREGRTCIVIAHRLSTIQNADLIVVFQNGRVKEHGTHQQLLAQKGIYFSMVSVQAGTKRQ

CYP2C9 [3] = conditions: in vitro; cited from earlier work
CYP3A4/5 [4] = conditions: cited from earlier work
CYP2C8 = conditions: in vitro; cited from earlier work
CYP3A4/5 [5] = conditions: lorlatinib with itraconazole; cited from earlier work
[6] = after oral administration; cited from earlier work
CYP2D6 = conditions: in vitro; cited from earlier work
bone marrow of rats = conditions: cited from earlier work
CYP3A4/5 [7] = conditions: cited from earlier work; remark: listed apart in the source
plasma proteins = conditions: cited from earlier work
CYP3A4/5 [8] = conditions: cited from earlier work; remark: listed apart in the source
P-glycoprotein (P-gp) [9] = conditions: MDCK II-MDR1 cells, substrate digoxin; cited from earlier work
CYP2B6 [10] = test: Effect of multiple-dose lorlatinib on the pharmacokinetics of bupropion; format: in vivo, human
CYP2C9 [11] = test: Effect of multiple-dose lorlatinib on the pharmacokinetics of tolbutamide; format: in vivo, human; conditions: lorlatinib 100 mg QD at steady state; probe tolbutamide
CYP2B6 [12] = conditions: in vitro; cited from earlier work
CYP1A2 = conditions: in vitro; cited from earlier work
CYP2C19 = conditions: in vitro; cited from earlier work
bacterial assay = conditions: in vitro bacterial assay; cited from earlier work
[13] = tested on: human lymphoblastoid TK6 cells; conditions: cited from earlier work
CYP3A4/5 [14] = conditions: lorlatinib with modafinil; cited from earlier work
[15] = acetaminophen with lorlatinib 100 mg QD vs acetaminophen alone
[16] = single oral 2-mg dose of midazolam with lorlatinib 150 mg QD

In the case of `CC(=O)Nc1ccc(O)cc1` [Acetaminophen, acetaminophen], the “Decrease in AUC∞” value (UGT; [15]) is reported as 45% and the “Decrease in Cmax” value (UGT; [15]) is reported as 28%.
For `C[C@H]1Oc2cc(cnc2N)-c2c(nn(C)c2C#N)CN(C)C(=O)c2ccc(F)cc21` [Lorlatinib, (10R)-7-amino-12-fluoro-2,10,16-trimethyl-15-oxo-10,15,16,17-tetrahydro-2H-8,4-(metheno)pyrazolo[4,3-h][2,5,11]-benzoxadiazacyclotetradecine-3-carbonitrile], the PXR activation [1] is listed as “activate PXR”, the “Inducer classification, P-gp” value (P-glycoprotein (P-gp) [2]) is listed as “moderate (≥ 50% to < 80%)” and the “Inhibition of CYP2C9” value (CYP2C9 [3]) is listed as “do not inhibit”. For the same compound, the “Effect on CYP3A4/5” value (CYP3A4/5 [4]) was “time-dependent inhibitor and inducer”, the “Inhibition of CYP2C8” value (CYP2C8) was “do not inhibit” and the “Increase in AUC∞” value (CYP3A4/5 [5]) was 42%. The “Increase in Cmax” value (CYP3A4/5 [5]) was 24%, the Bioavailability [6] was 81% and the “Inhibition of CYP2D6” value (CYP2D6) was “do not inhibit”. For the same compound, the Aneugenicity in vivo (bone marrow of rats) was “aneugenic”, the “Transaminase / liver enzyme levels” value (CYP3A4/5 [7]; coadministration of lorlatinib with rifampin) was “elevated liver enzyme levels; also recorded: rapid elevations in transaminase values” and the “Reduction in Cmax” value (CYP3A4/5 [7]; lorlatinib with rifampin) was 76%. For the same compound, the “Reduction in mean AUC∞” value (CYP3A4/5 [7]; lorlatinib with rifampin) was 85%, the “Binding to plasma proteins” value (plasma proteins) was 66% and the “Inducer classification, CYP3A4/5” value (CYP3A4/5 [8]; after multiple dosing, probe midazolam) was “moderate (≥ 50% to < 80%)”. The “Inhibition of P-gp efflux” value (P-glycoprotein (P-gp) [9]) was “inhibit”, the “Inducer classification, CYP2B6” value (CYP2B6 [10]; lorlatinib 100 mg QD at steady state, probe bupropion) was “weak (≥ 20% to < 50%)” and the “Inducer classification, CYP2C9” value (CYP2C9 [11]) was “weak (≥ 20% to < 50%)”. The “Inhibition of CYP2B6” value (CYP2B6 [12]) was “do not inhibit”, the “Inhibition of CYP1A2” value (CYP1A2) was “do not inhibit” and the “Inhibition of CYP2C19” value (CYP2C19) was “do not inhibit”. For the same compound, the Mutagenicity (bacterial assay) was “not mutagenic”, the “Inducer classification, UGT” value (UGT; lorlatinib 100 mg QD at steady state, probe acetaminophen) was “weak (≥ 20% to < 50%)” and the Aneugenicity in vitro [13] was “aneugenic”. The “Reduction in AUC∞” value (CYP3A4/5 [14]) was 23% and the “Reduction in Cmax” value (CYP3A4/5 [14]) was 22%.
In the case of `Cc1ncc2n1-c1ccc(Cl)cc1C(c1ccccc1F)=NC2` [midazolam], the “Decrease in AUC∞” value (CYP3A4/5 [8]; [16]) is listed as 64% and the “Decrease in Cmax” value (CYP3A4/5 [8]; [16]) is listed as 50%.
With `CC(NC(C)(C)C)C(=O)c1cccc(Cl)c1` (stereo not shown) [Bupropion, bupropion] the “Decrease in Cmax” value (CYP2B6 [10]; bupropion with lorlatinib 100 mg QD vs bupropion alone) was 27%.
